In the assay the test system is CA1 pyramidal neurons of PS1/APP mice. Put plainly: Ca2+ imaging in brain slices of treated PS1/APP mice. Format: in vivo, mouse. To be noted: 10 mg/kg IP, 4 weeks, caffeine 10 mM, 60 sec. The text has this:
Mouse Model: PS1/APP mice (PS1M146V and APPSWE) (Howlett et al., Brain Res. 2004, 1017, 130-136) were used. Age-matched NTg controls were on the same background strain (C57bl6/J9).
Brain Slice Preparation: Mice were deeply anesthetized with halothane and rapidly decapitated. The brains were extracted rapidly and 300 or 400 μm-thick transverse hippocampal slices were cut with a vibrating microtome into ice-cold oxygenated artificial cerebrospinal fluid (aCSF) with the following composition (in mM): 125 NaCl, 2.5 KCl, 1.25 KH2PO4, 1.2 MgSO4, 2 CaCl2, 10 dextrose, and 25 NaHCO3.
Ca^2+ Imaging: Ca^2+ imaging within individual neurons was performed in brain slice preparations using a custom-made video-rate multiphoton-imaging system based on an upright Olympus BX51 microscope frame. […] Emitted fluorescence light was detected by a wide-field photomultiplier (Electron Tubes) to derive a video signal that was captured and analyzed by Video Savant 5.0 software (IO Industries). […] For clarity, results are expressed as inverse ratios so that increases in [Ca^2+] correspond to increasing ratios. The % change is calculated as [(F/ΔF)−1]×100, where F is the average resting fluorescence at baseline and ΔF is the decrease of fluorescence reflecting Ca release. Differences between drug- and saline-treated groups were assessed using two-way ANOVA and Scheffe post hoc analysis for significance (p<0.05). […]

Consider `Cc1ccc2cccc(NC(=O)c3ccc(OC(C)C)cc3)c2n1` [Compound A12, 4-Isopropoxy-N-(2-methylquinolin-8-yl)benzamide], for which the “ER Ca^2+ signaling (RyR-Ca2+ response to caffeine)” value was “restores ER Ca^2+ signaling”.

The values above are taken from patent US11890279B2, “Quinolines that modulate SERCA and their use for treating disease” (Neurodon Corporation, priority 2020, dated 2024).
